In the NIST ThermoML archive (doi:10.1021/je0501843):
Where “and” joins values, the source holds several entries; their conditions need not be identical. Identical values can stand only once.

Experiment: molar heat capacity at constant volume
Conditions: Fluid (supercritical or subcritical phases), Vacuum adiabatic calorimetry

FC(F)C(F)(F)F [pentafluoroethane]
Conditions | molar heat capacity at constant volume
365 K, Mass density=773.3 kg/m3 | 119.04 J/K/mol
365 K, Mass density=881.8 kg/m3 | 110.32 J/K/mol
365 K, Mass density=973.8 kg/m3 | 106.41 J/K/mol and 108.3 J/K/mol
365 K, Mass density=1075 kg/m3 | 105.75 J/K/mol
366 K, Mass density=403.6 kg/m3 | 108.16 J/K/mol
366 K, Mass density=503 kg/m3 | 114.45 J/K/mol
366 K, Mass density=585.5 kg/m3 | 119.7 J/K/mol and 112.44 J/K/mol
366 K, Mass density=688.1 kg/m3 | 116.48 J/K/mol
366 K, Mass density=881.7 kg/m3 | 110.43 J/K/mol
366 K, Mass density=973.7 kg/m3 | 107.62 J/K/mol and 109.23 J/K/mol
366 K, Mass density=1074.9 kg/m3 | 106.22 J/K/mol
367 K, Mass density=403.6 kg/m3 | 110.86 J/K/mol
367 K, Mass density=502.9 kg/m3 | 113.31 J/K/mol
367 K, Mass density=585.4 kg/m3 | 117.62 J/K/mol and 110.28 J/K/mol
367 K, Mass density=688.1 kg/m3 | 115.05 J/K/mol
367 K, Mass density=881.7 kg/m3 | 109.7 J/K/mol
367 K, Mass density=973.6 kg/m3 | 107.58 J/K/mol and 108.96 J/K/mol
367 K, Mass density=1074.8 kg/m3 | 106.41 J/K/mol
368 K, Mass density=403.5 kg/m3 | 111.09 J/K/mol
368 K, Mass density=502.9 kg/m3 | 112.14 J/K/mol
368 K, Mass density=585.4 kg/m3 | 115.53 J/K/mol and 108.9 J/K/mol
368 K, Mass density=688 kg/m3 | 113.01 J/K/mol
368 K, Mass density=773.1 kg/m3 | 111.16 J/K/mol
368 K, Mass density=881.6 kg/m3 | 109.62 J/K/mol
368 K, Mass density=973.6 kg/m3 | 106.75 J/K/mol and 108.55 J/K/mol
368 K, Mass density=1074.7 kg/m3 | 106.17 J/K/mol
369 K, Mass density=403.5 kg/m3 | 111.67 J/K/mol
369 K, Mass density=502.9 kg/m3 | 113.46 J/K/mol
369 K, Mass density=585.4 kg/m3 | 118.03 J/K/mol and 110.31 J/K/mol
369 K, Mass density=688 kg/m3 | 114.37 J/K/mol
369 K, Mass density=773.1 kg/m3 | 112.65 J/K/mol
369 K, Mass density=881.6 kg/m3 | 110.94 J/K/mol
369 K, Mass density=973.5 kg/m3 | 108.28 J/K/mol and 109.62 J/K/mol
369 K, Mass density=1074.6 kg/m3 | 106.18 J/K/mol
370 K, Mass density=403.5 kg/m3 | 111.22 J/K/mol
370 K, Mass density=502.9 kg/m3 | 114.85 J/K/mol
370 K, Mass density=585.4 kg/m3 | 118.04 J/K/mol and 108.82 J/K/mol
370 K, Mass density=687.9 kg/m3 | 116.1 J/K/mol
370 K, Mass density=773 kg/m3 | 113 J/K/mol
370 K, Mass density=881.5 kg/m3 | 111.13 J/K/mol
370 K, Mass density=973.4 kg/m3 | 107.54 J/K/mol and 109.82 J/K/mol
370 K, Mass density=1074.5 kg/m3 | 106.55 J/K/mol
371 K, Mass density=403.5 kg/m3 | 112.09 J/K/mol
371 K, Mass density=502.9 kg/m3 | 116.62 J/K/mol
371 K, Mass density=585.3 kg/m3 | 116.07 J/K/mol and 110.26 J/K/mol
371 K, Mass density=687.9 kg/m3 | 113.67 J/K/mol
371 K, Mass density=773 kg/m3 | 111.62 J/K/mol
371 K, Mass density=881.4 kg/m3 | 110.7 J/K/mol
371 K, Mass density=973.3 kg/m3 | 107.44 J/K/mol and 109.17 J/K/mol
371 K, Mass density=1074.4 kg/m3 | 107.07 J/K/mol
372 K, Mass density=403.5 kg/m3 | 114.04 J/K/mol
372 K, Mass density=502.8 kg/m3 | 115.24 J/K/mol
372 K, Mass density=585.3 kg/m3 | 115.84 J/K/mol and 110.71 J/K/mol
372 K, Mass density=687.9 kg/m3 | 112.84 J/K/mol
372 K, Mass density=772.9 kg/m3 | 111.54 J/K/mol
372 K, Mass density=881.4 kg/m3 | 110.3 J/K/mol
372 K, Mass density=973.3 kg/m3 | 107.17 J/K/mol and 108.04 J/K/mol
372 K, Mass density=1074.3 kg/m3 | 106.22 J/K/mol
373 K, Mass density=403.5 kg/m3 | 113.17 J/K/mol
373 K, Mass density=502.8 kg/m3 | 117.01 J/K/mol
373 K, Mass density=585.3 kg/m3 | 117.2 J/K/mol and 110.91 J/K/mol
373 K, Mass density=687.8 kg/m3 | 113.56 J/K/mol
373 K, Mass density=772.9 kg/m3 | 111.8 J/K/mol
373 K, Mass density=881.3 kg/m3 | 111.19 J/K/mol
373 K, Mass density=973.2 kg/m3 | 107.61 J/K/mol and 108.78 J/K/mol
374 K, Mass density=403.4 kg/m3 | 114.45 J/K/mol
374 K, Mass density=502.8 kg/m3 | 119.13 J/K/mol
374 K, Mass density=585.3 kg/m3 | 117.5 J/K/mol and 112.68 J/K/mol
374 K, Mass density=687.8 kg/m3 | 114.16 J/K/mol
374 K, Mass density=772.9 kg/m3 | 112.71 J/K/mol
374 K, Mass density=881.2 kg/m3 | 112 J/K/mol
374 K, Mass density=973.1 kg/m3 | 108.98 J/K/mol and 110.07 J/K/mol
375 K, Mass density=403.4 kg/m3 | 112.95 J/K/mol
375 K, Mass density=502.8 kg/m3 | 117.92 J/K/mol
375 K, Mass density=585.2 kg/m3 | 116.64 J/K/mol and 110.73 J/K/mol
375 K, Mass density=687.8 kg/m3 | 113.4 J/K/mol
375 K, Mass density=772.8 kg/m3 | 112.33 J/K/mol
375 K, Mass density=881.2 kg/m3 | 111 J/K/mol
375 K, Mass density=973 kg/m3 | 108.25 J/K/mol and 109.81 J/K/mol
376 K, Mass density=403.4 kg/m3 | 116.08 J/K/mol
376 K, Mass density=502.8 kg/m3 | 116.37 J/K/mol
376 K, Mass density=585.2 kg/m3 | 116.55 J/K/mol and 110.52 J/K/mol
376 K, Mass density=687.7 kg/m3 | 113.56 J/K/mol
376 K, Mass density=772.8 kg/m3 | 112.56 J/K/mol
376 K, Mass density=881.1 kg/m3 | 110.12 J/K/mol
376 K, Mass density=973 kg/m3 | 107.55 J/K/mol and 109 J/K/mol
377 K, Mass density=403.4 kg/m3 | 115.48 J/K/mol
377 K, Mass density=502.7 kg/m3 | 117.28 J/K/mol
377 K, Mass density=585.2 kg/m3 | 116.34 J/K/mol and 111.62 J/K/mol
377 K, Mass density=687.7 kg/m3 | 114.45 J/K/mol
377 K, Mass density=772.7 kg/m3 | 113.06 J/K/mol
377 K, Mass density=881.1 kg/m3 | 110.86 J/K/mol
377 K, Mass density=972.9 kg/m3 | 108.42 J/K/mol and 108.94 J/K/mol
378 K, Mass density=403.4 kg/m3 | 113.28 J/K/mol
378 K, Mass density=502.7 kg/m3 | 118.29 J/K/mol
378 K, Mass density=585.1 kg/m3 | 116.82 J/K/mol and 112.87 J/K/mol
378 K, Mass density=687.6 kg/m3 | 114.84 J/K/mol
378 K, Mass density=772.7 kg/m3 | 112.51 J/K/mol
378 K, Mass density=881 kg/m3 | 111.43 J/K/mol
378 K, Mass density=972.8 kg/m3 | 108.14 J/K/mol and 110.22 J/K/mol
379 K, Mass density=403.3 kg/m3 | 117.97 J/K/mol
379 K, Mass density=502.7 kg/m3 | 115.21 J/K/mol
379 K, Mass density=585.1 kg/m3 | 116.17 J/K/mol and 112.3 J/K/mol
379 K, Mass density=687.6 kg/m3 | 115.82 J/K/mol
379 K, Mass density=772.6 kg/m3 | 113.55 J/K/mol
379 K, Mass density=880.9 kg/m3 | 111.09 J/K/mol
379 K, Mass density=972.7 kg/m3 | 107.65 J/K/mol and 109.27 J/K/mol
380 K, Mass density=403.3 kg/m3 | 116.02 J/K/mol
380 K, Mass density=502.7 kg/m3 | 112.64 J/K/mol
380 K, Mass density=585.1 kg/m3 | 111.27 J/K/mol
380 K, Mass density=687.6 kg/m3 | 113.06 J/K/mol
380 K, Mass density=772.6 kg/m3 | 113.31 J/K/mol
380 K, Mass density=880.9 kg/m3 | 111.18 J/K/mol
380 K, Mass density=972.6 kg/m3 | 107.71 J/K/mol and 108.81 J/K/mol
381 K, Mass density=403.3 kg/m3 | 114.7 J/K/mol
381 K, Mass density=502.6 kg/m3 | 115.06 J/K/mol
381 K, Mass density=585 kg/m3 | 114.39 J/K/mol
381 K, Mass density=687.5 kg/m3 | 113.14 J/K/mol
381 K, Mass density=772.5 kg/m3 | 113.07 J/K/mol
381 K, Mass density=880.8 kg/m3 | 112.11 J/K/mol
381 K, Mass density=972.6 kg/m3 | 113.29 J/K/mol and 109.7 J/K/mol
382 K, Mass density=403.3 kg/m3 | 116.14 J/K/mol
382 K, Mass density=502.6 kg/m3 | 117.31 J/K/mol
